Each structure is given as a SMILES string.

One assay deals with recombinant human MGAT2 (Homo sapiens (Human), UniProt Q3SYC2). Briefly: Measurement of human MGAT2 inhibitory activity. The assay is classed as biochemical. The settings on record: read-out: IC50 (concentration exhibiting 50% enzyme inhibition), Table 52. As to the method: A full-length human MGAT2 gene to which a Flag-tag had been added at the N-terminal was inserted into pFastBac (from Invitrogen). A recombinant baculovirus was produced in accordance with the protocol for a Bac-to-Bac baculovirus expression system (produced by Invitrogen), and Sf-9 cells were infected therewith. The cells were collected and sonicated, and then the membrane fraction was collected through centrifugation. Western blotting analysis with an anti-Flag antibody was performed for the membrane fraction to confirm expression, and the membrane fraction was used as a recombinant human MGAT2 enzyme solution.
recombinant human MGAT2, sequence (Q3SYC2 whole entry): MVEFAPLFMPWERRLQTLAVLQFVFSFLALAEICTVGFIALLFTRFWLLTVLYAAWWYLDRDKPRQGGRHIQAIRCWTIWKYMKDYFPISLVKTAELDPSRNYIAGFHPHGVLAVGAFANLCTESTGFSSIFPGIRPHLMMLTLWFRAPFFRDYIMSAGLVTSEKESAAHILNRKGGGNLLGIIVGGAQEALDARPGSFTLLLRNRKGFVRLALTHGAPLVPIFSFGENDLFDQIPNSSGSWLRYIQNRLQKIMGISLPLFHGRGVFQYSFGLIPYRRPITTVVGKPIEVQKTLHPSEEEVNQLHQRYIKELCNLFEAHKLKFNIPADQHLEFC
Solutions of the compounds of the present invention in DMSO were each aliquoted into 0.2-μL portions in a 384-well polystyrene microplate produced by Corning Incorporated, and 5 μL of an enzyme solution prepared with an assay buffer (100 mmol/L phosphate buffer (pH 7.4) containing 2 mmol/L DTT) and 5 μL of a substrate solution (100 mmol/L phosphate buffer (pH 7.4), 30 μmol/L 2-Oleoylglycerol, 10 μmol/L Oleoyl-CoA) were added thereto, and the resultant was stirred and centrifuged, and incubated in a moist chamber at room temperature for 1 hour. After enzymatic reaction, 50 μL of a quenching solution (containing 0.2 μmol/L Diolein-d5, 0.4% formic acid, and 50% isopropanol) containing Internal Standard (IS) was added to terminate the reaction, and the resultant was sealed in a plate produced by Shimadzu GLC Ltd., and then stirred and centrifuged, and measurement was performed by using an electrospray ionization method with a RapidFire360 and Agilent 6550 Q-TOF mass spectrometer. Diolein as a reaction product (P) of 2-Oleoylglycerol as the substrate and an ammonium adduct ion of the IS were detected, and the peak intensity ratio, P/IS, was calculated from the peak heights to evaluate the inhibitory activity. Inhibitory activities with/without addition of enzyme were defined as Control (+)/Control (−), respectively, and the respective % inhibitions were defined as 0% inhibition and 100% inhibition. The inhibitory activity was calculated from formula below with TIBCO Spotfire (produced by TIBCO Software Inc.): Inhibitory activity (%)=[1−{Sample−Control(−)}/{Control(+)−Control(−)}]*100 where Sample indicates a peak intensity ratio: P/IS, when the compound of the present invention was added.
Consider `O=C(Nc1nn(CCC2CC2)c2c1C(=O)N[C@@]1(CCc3cc(OCCCC(F)(F)F)ccc31)C2)c1ccno1` [Compound I-1], for which the IC50 was 540 nM.
Same read-out and setting: under `CS(=O)(=O)CC(=O)Nc1c2c(nn1CCC1CC1)C[C@]1(CCc3cc(OCCCC(F)(F)F)ccc31)NC2=O` [Compound I-2] stands 1.35 nM.
Still for that read-out and setting: under `CS(=O)(=O)CC(=O)Nc1c2c(nn1CCC1CC1)C[C@]1(CCc3cc(C4CC4)ccc31)NC2=O` [Compound I-3] stands 9.22 nM.
Consider `CC(=O)Nc1c2c(nn1CCC1CC1)C[C@]1(CCc3cc(OCCCC(F)(F)F)ccc31)NC2=O` [Compound I-4], for which the IC50 is 330 nM.
The same measure, in the same setting: under `CS(=O)(=O)CC(=O)Nc1nn(CCC2CC2)c2c1C(=O)N[C@@]1(CCc3cc(OCCCC(F)(F)F)ccc31)C2` [Compound I-5] stands 500 nM; under `CS(=O)(=O)CC(=O)Nc1c2c(nn1CCC1CC1)C[C@]1(CCc3cc(C(F)(F)F)ccc31)NC2=O` [Compound I-6], 11.9 nM.
As to `CS(=O)(=O)CC(=O)Nc1c2c(nn1CCC1CC1)C[C@]1(CCc3cc(OCC(F)F)ccc31)NC2=O` [Compound I-7], the IC50 was 15 nM.
The same measure, in the same setting: as for `O=C1N[C@@]2(CCc3cc(OCCCC(F)(F)F)ccc32)Cc2nn(CCC3CC3)c(C(=O)O)c21` [Compound I-9], the figure is 70 nM; as for `CNC(=O)c1c2c(nn1CCC1CC1)C[C@]1(CCc3cc(OCCCC(F)(F)F)ccc31)NC2=O` [Compound I-11], 500 nM.
Same read-out and setting: as for `CNS(=O)(=O)Nc1c2c(nn1CCC1CC1)C[C@]1(CCc3cc(OCCCC(F)(F)F)ccc31)NC2=O` [Compound I-13], the figure is 90 nM; as for `CC(C)NC(=O)Nc1c2c(nn1CCC1CC1)C[C@]1(CCc3cc(OCCCC(F)(F)F)ccc31)NC2=O` [Compound I-14], 380 nM.
With `COc1ccccc1C(=O)Nc1c2c(nn1CCC1CC1)C[C@]1(CCc3cc(OCCCC(F)(F)F)ccc31)NC2=O` [Compound I-15], the IC50 came out at 280 nM.
The same measure, in the same setting: as for `O=C(Nc1c2c(nn1CCC1CC1)C[C@]1(CCc3cc(OCCCC(F)(F)F)ccc31)NC2=O)c1ccc(F)cc1` [Compound I-16], the figure is 150 nM.
Same read-out and setting: as for `COc1cccc(C(=O)Nc2c3c(nn2CCC2CC2)C[C@]2(CCc4cc(OCCCC(F)(F)F)ccc42)NC3=O)c1` [Compound I-17], the figure is 160 nM; as for `O=C(Nc1c2c(nn1CCC1CC1)C[C@]1(CCc3cc(OCCCC(F)(F)F)ccc31)NC2=O)c1ccno1` [Compound I-18], 9.1 nM.
As for `O=C(Nc1c2c(nn1CCC1CC1)C[C@]1(CCc3cc(OCCCC(F)(F)F)ccc31)NC2=O)c1ccccc1` [Compound I-19], the IC50 worked out at 38 nM.
Still for that read-out and setting: as for `O=C(CC(F)F)Nc1c2c(nn1CCC1CC1)C[C@]1(CCc3cc(OCCCC(F)(F)F)ccc31)NC2=O` [Compound I-20], the figure is 21 nM.
The same measure, in the same setting: under `CS(=O)(=O)CC(=O)NCc1c2c(nn1CCC1CC1)C[C@]1(CCc3cc(OCCCC(F)(F)F)ccc31)NC2=O` [Compound I-21] stands 17 nM; under `CS(=O)(=O)NCc1c2c(nn1CCC1CC1)C[C@]1(CCc3cc(OCCCC(F)(F)F)ccc31)NC2=O` [Compound I-22], 190 nM; under `N#CCC(=O)Nc1c2c(nn1CCC1CC1)C[C@]1(CCc3cc(OCCCC(F)(F)F)ccc31)NC2=O` [Compound I-25], 49 nM.
Same read-out and setting: as for `O=C(CC(F)(F)F)Nc1c2c(nn1CCC1CC1)C[C@]1(CCc3cc(OCCCC(F)(F)F)ccc31)NC2=O` [Compound I-26], the figure is 15 nM; as for `O=C(CN1CCCC1=O)Nc1c2c(nn1CCC1CC1)C[C@]1(CCc3cc(OCCCC(F)(F)F)ccc31)NC2=O` [Compound I-27], 600 nM; as for `CC(=O)NCC(=O)Nc1c2c(nn1CCC1CC1)C[C@]1(CCc3cc(OCCCC(F)(F)F)ccc31)NC2=O` [Compound I-28], 435 nM.
As for `COCC(=O)Nc1c2c(nn1CCC1CC1)C[C@]1(CCc3cc(OCCCC(F)(F)F)ccc31)NC2=O` [Compound I-29], the IC50 amounted to 113 nM.
With `Cn1cc(CC(=O)Nc2c3c(nn2CCC2CC2)C[C@]2(CCc4cc(OCCCC(F)(F)F)ccc42)NC3=O)cn1` [Compound I-30], the IC50 was determined as 175 nM.
Still for that read-out and setting: as for `CNS(=O)(=O)CC(=O)Nc1c2c(nn1CCC1CC1)C[C@]1(CCc3cc(OCCCC(F)(F)F)ccc31)NC2=O` [Compound I-31], the figure is 3.2 nM.
Same read-out and setting: under `O=C(COC(F)(F)F)Nc1c2c(nn1CCC1CC1)C[C@]1(CCc3cc(OCCCC(F)(F)F)ccc31)NC2=O` [Compound I-32] stands 17 nM; under `CS(=O)(=O)CC(=O)Nc1c2c(nn1-c1ccc(OC(F)(F)F)cc1)C[C@]1(CCc3cc(OCCCC(F)(F)F)ccc31)NC2=O` [Compound I-33], 14.7 nM.
With `CS(=O)(=O)CC(=O)Nc1c2c(nn1CCC1CC1)C[C@]1(CCc3cc(CCC(F)(F)F)ccc31)NC2=O` [Compound I-35], the IC50 came out at 6.8 nM.
`CS(=O)(=O)CC(=O)Nc1c2c(nn1CCC1CC1)C[C@]1(CCc3cc(Br)ccc31)NC2=O` [Compound I-36]: the IC50 amounted to 27 nM.
Same read-out and setting: under `CS(=O)(=O)Nc1c2c(nn1CCC1CC1)C[C@]1(CCc3cc(OCCCC(F)(F)F)ccc31)NC2=O` [Compound I-38] stands 625 nM.
On the same count and under the same terms, as for `CS(=O)(=O)CC(=O)Nc1c2c(nn1-c1cccc3ccccc13)C[C@]1(CCc3cc(OCCCC(F)(F)F)ccc31)NC2=O` [Compound I-39], the figure is 930 nM; as for `CS(=O)(=O)CC(=O)Nc1c2c(nn1C1CCCCC1)C[C@]1(CCc3cc(OCCCC(F)(F)F)ccc31)NC2=O` [Compound I-40], 18 nM.
Still for that read-out and setting: under `CS(=O)(=O)CC(=O)Nc1c2c(nn1-c1cccc3c1CCC3)C[C@]1(CCc3cc(OCCCC(F)(F)F)ccc31)NC2=O` [Compound I-41] stands 79 nM.
Regarding `Cc1ccc(-n2nc3c(c2NC(=O)CS(C)(=O)=O)C(=O)N[C@@]2(CCc4cc(OCCCC(F)(F)F)ccc42)C3)cc1` [Compound I-42], the IC50 came out at 2.5 nM.
In the case of `CS(=O)(=O)CC(=O)Nc1c2c(nn1-c1ccc(S(C)(=O)=O)cc1)C[C@]1(CCc3cc(OCCCC(F)(F)F)ccc31)NC2=O` [Compound I-43], the IC50 turned out to be 340 nM.
The same measure, in the same setting: under `CS(=O)(=O)CC(=O)Nc1c2c(nn1-c1ccc(C#N)cc1)C[C@]1(CCc3cc(OCCCC(F)(F)F)ccc31)NC2=O` [Compound I-44] stands 3.9 nM.
On the same count and under the same terms, as for `Cn1c(-n2nc3c(c2NC(=O)CS(C)(=O)=O)C(=O)N[C@@]2(CCc4cc(OCCCC(F)(F)F)ccc42)C3)nc2ccccc21` [Compound I-45], the figure is 41.5 nM; as for `CN(C)CCn1nc2c(c1NC(=O)CS(C)(=O)=O)C(=O)N[C@@]1(CCc3cc(OCCCC(F)(F)F)ccc31)C2` [Compound I-46], 440 nM; as for `CS(=O)(=O)CC(=O)Nc1c2c(nn1CCN1CCCC1)C[C@]1(CCc3cc(OCCCC(F)(F)F)ccc31)NC2=O` [Compound I-47], 265 nM.
On to `Cc1ccc(-n2nc(NC(=O)CS(C)(=O)=O)c3c2C[C@]2(CCc4cc(OCCCC(F)(F)F)ccc42)NC3=O)cc1` [Compound I-48], for which the IC50 came out at 195 nM.
Same read-out and setting: as for `CS(=O)(=O)CC(=O)Nc1c2c(nn1CCC1CC1)C[C@]1(CCOc3cc(OCC(F)(F)F)ccc31)NC2=O` [Compound I-49], the figure is 1.9 nM.

The assay is the same for the next values; noted with them: read-out: IC50 (concentration exhibiting 50% enzyme inhibition), Table 53.
As to `Cc1ccc(-n2nc3c(c2NC(=O)CS(C)(=N)=O)C(=O)N[C@@]2(CCc4cc(OCC(F)(F)F)ccc42)C3)nc1` (single isomer, unassigned) [II-275], the IC50 is 6.15 nM.
